What was measured:
[1] = test system: IL-6 release from IL-1β activated HFLS; experiment: IL-6 release by ELISA in IL-1β activated human fibroblast-like synoviocytes; assay type: cell-based; settings: for inhibition at 25 µM: compounds at 25 µM = 13 µg/mL, read-out: Inhibition of IL-6 release at highest non-toxic concentration (%); for IC50: isolated compounds; for Fold higher activity (IC50) compared to compound 1 / DCMAB: IC50 comparison
Description: Hip synovial membrane was collected from three male adult patients with clinical osteoarthritis (OA) at the time of hip replacement surgery. […] Once collected, tissue samples were processed, according to previously described protocols. […] After overnight culture, non-adherent cells were removed. At confluence, cells were trypsinized and passaged to 75 cm^2 culture flasks (Corning, NY, USA) in complete medium containing 10% fetal bovine serum. […] All cellular assays were performed from passage 3 to 9. Experiments were conducted twice per donor (n = 6).
All tested compounds were dissolved in a dimethyl sulfoxide (DMSO) stock solution and further diluted in culture medium. Final concentration of DMSO in vehicle of tested concentrations was 0.01%. After 1 h incubation, cells were activated by addition of IL-1β (1 µg/mL) (R&D Systems, Bio-Techne, Abingdon, UK) with subsequent incubation for 23 h. All supernatants were kept at −80 °C, before further testing. Remaining adherent cells were tested for viability using the cell proliferation reagent WST-1 (Roche, Basel, Switzerland), according to the supplier instructions. Pro-inflammatory cytokine IL-6 release in cell supernatant was assessed by ELISA. […] All samples were diluted 90 times. Experiments were conducted twice per donor (n = 6).
In this study, data are presented as mean values ± standard deviation (S.D.). All analyses were performed using GraphPad Prism 8.3 software. IC50 values were determined using a nonlinear fitting of a log (inhibitor concentration) vs response variable slope for each donor’s data set. Consequent values were then averaged. After confirming the data normal distribution and homogeneity of variances (Brown-Forsythe and Welch; Shapiro-Wilk, D’Agostino-Pearson and Anderson-Darling), statistical analysis was performed using a two-way ANOVA with a Bonferroni multiple comparisons test. Significance was determined at alpha level 0.05. Significance values represented are * p < 0.05, ** p < 0.009 and ns for non-significance.

[2] = test system: human fibroblast like synoviocytes (HFLS); experiment: In vitro cytotoxicity (WST-1 cell viability) in HFLS; assay type: cell-based; settings: 24 h, tested 3-100 µM
Description: Hip synovial membrane was collected from three male adult patients with clinical osteoarthritis (OA) at the time of hip replacement surgery. This protocol was conducted under the approval of the local Ethics Committee (CCER, Geneva, Switzerland) (Authorization #2017-02234) and with informed and consenting patients. Once collected, tissue samples were processed, according to previously described protocols. Briefly, samples were finely minced and digested for 3 h (37 °C, 5% CO2 incubation) in a 3 mg/mL collagenase IX-RPMI 1640 solution. After centrifugation (200× g) and supernatant removal, the resuspended pellet was cultured (37 °C, 5% CO2) in medium containing RPMI 1640, M199 (1:1), 1% penicillin/streptomycin (100 IU/mL:100 µg/mL), 2 mM L-glutamine and 20% fetal bovine serum. After overnight culture, non-adherent cells were removed. At confluence, cells were trypsinized and passaged to 75 cm^2 culture flasks (Corning, NY, USA) in complete medium containing 10% fetal bovine serum. A double control was performed to confirm presence of HFLS after isolation: visual morphology evaluation (Figure S3) and flow cytometry with synoviocyte specific surface markers ([…] and VCAM-1). […] All cellular assays were performed from passage 3 to 9. Experiments were conducted twice per donor (n = 6).
Confluent HFLS cells (25,000 cells/well) were treated in a 96-well plate with compounds 1, 2, and 3 (3 µM, 6 µM, 12 µM, 25 µM, 50 µM, and 100 µM), HEAB and DCMAB (increasing concentrations from 3 to 100 µg/mL), or control vehicle for 1 h. All tested compounds were dissolved in a dimethyl sulfoxide (DMSO) stock solution and further diluted in culture medium. Final concentration of DMSO in vehicle of tested concentrations was 0.01%. After 1 h incubation, cells were activated by addition of IL-1β (1 µg/mL) (R&D Systems, Bio-Techne, Abingdon, UK) with subsequent incubation for 23 h. All supernatants were kept at −80 °C, before further testing. […] Pro-inflammatory cytokine IL-6 release in cell supernatant was assessed by ELISA. […]

[3] = Homo sapiens, IL-1β activated HFLS, 24 h
[4] = Homo sapiens, IL-1β activated HFLS, 24 h, n = 6
[5] = Homo sapiens, µM values transformed into µg/mL

| SMILES | inhibition at 50 µM ([1]; Homo sapiens, 50 µM, non-significant) | inhibition at 25 µM [1, 3] | IC50 [1, 4] | IC50 [1, 5] | Concentration at which cytotoxicity / loss of viability occurs [2] | Fold higher activity (IC50) compared to compound 1 / DCMAB [1] |
| --- | --- | --- | --- | --- | --- | --- |
| COc1cc(O)cc2c1C(C=Cc1ccc(O)cc1)C1C(c3ccccc3)Oc3cc(O)cc(OC)c3C1O2 (stereo not drawn) [Compound 1, brachydin A] | 24% | 10 ± 11% | 62 ± 2 µM | 33 ± 2 µg/mL | 100 µM |  |
| COc1ccc(C=CC2c3c(OC)cc(O)cc3OC3c4c(OC)cc(O)cc4OC(c4ccccc4)C23)cc1 (stereo not drawn) [Compound 2, brachydin B] |  | 80 ± 9% | 17 ± 3 µM | 9 ± 3 µg/mL | 50 µM | 3 fold |
| COc1cc(O)cc2c1C(C=Cc1ccccc1)C1C(c3ccccc3)Oc3cc(O)cc(OC)c3C1O2 (stereo not drawn) [Compound 3, brachydin C] |  | 94 ± 5% | 19 ± 3 µM | 10 ± 3 µg/mL | 50 µM | 3 fold |

Reference: paper PMC7665123, “In Vitro Anti-Inflammatory Activity in Arthritic Synoviocytes of A. brachypoda Root Extracts and Its Unusual Dimeric Flavonoids” (Molecules, 2020)
